{"source": "patent US8871681B2", "about": "“Herbicidal compositions comprising 4-amino-3-chloro-5-fluoro-6-(4-chloro-2-fluoro-3-methoxyphenyl) pyridine-2-carboxylic acid or a derivative thereof and certain sulfonylureas” (Dow AgroSciences LLC, priority 2012, dated 2014)", "key": {"[1]": {"system": "MATCH (Chamomilla chamomilla, scented mayweed)", "assay": "Post-emergence foliar-applied weed control in cereal crops, greenhouse (Example III)", "format": "in vivo, Chamomilla chamomilla (L.) Rydb.", "description": "Seeds of the desired test plant species were planted in Sun Gro MetroMix® 306 planting mixture, which typically has a pH of 6.0 to 6.8 and an organic matter content of about 30 percent, in plastic pots with a surface area of 103.2 square centimeters (cm^2). When required to ensure good germination and healthy plants, a fungicide treatment and/or other chemical or physical treatment was applied. The plants were grown for 7-36 days in a greenhouse with an approximate 14 hour photoperiod which was maintained at about 18° C. during the day and 17° C. during the night. Nutrients and water were added on a regular basis and supplemental lighting was provided with overhead metal halide 1000-Watt lamps as necessary. The plants were employed for testing when they reached the second or third true leaf stage.\nTreatments consisted of the benzyl ester of 4-amino-3-chloro-5-fluoro-6-(4-chloro-2-fluoro-3-methoxy-phenyl)pyridine-2-carboxylic acid (Compound A), formulated as an SC (suspension concentrate), and a second cereal herbicide alone and in combination.\nMeasured aliquot of benzyl ester of 4-amino-3-chloro-5-fluoro-6-(4-chloro-2-fluoro-3-methoxy-phenyl)pyridine-2-carboxylic acid (Compound A) was placed in 25 milliliter (mL) glass vials and diluted in a volume of 1.25% (v/v) Agri-dex crop oil concentrated to obtain stock solutions. Compound requirements are based upon a 12 mL application volume at a rate of 187 liters per hectare (L/ha). Spray solutions of the second cereal herbicide and experimental compound mixtures were prepared by adding the stock solutions to the appropriate amount of dilution solution to form 12 mL spray solution with active ingredients in two- and three-way combinations. Formulated compounds were applied to the plant material with an overhead Mandel track sprayer equipped with an 8002E nozzle calibrated to deliver 187 L/ha over an application area of 0.503 square meters (m^2) at a spray height of 18 inches (46 cm) above average plant canopy. Control plants were sprayed in the same manner with the solvent blank.\nThe treated plants and control plants were placed in a greenhouse as described above and watered by sub-irrigation to prevent wash-off of the test compounds. After 20-22 days, the condition of the test plants as compared with that of the control plants was determined visually and scored on a scale of 0 to 100 percent where 0 corresponds to no injury and 100 corresponds to complete kill.\nColby's equation was used to determine the herbicidal effects expected from the mixtures (Colby, S. R. 1967. Calculation of the synergistic and antagonistic response of herbicide combinations. Weeds 15:20-22.).\nThe following equation was used to calculate the expected activity of mixtures containing two active ingredients, A and B: Expected=A+B−(A×B/100)"}, "[2]": {"system": "CIRAR (Cirsium arvense, Canada thistle)", "assay": "Post-emergence foliar-applied weed control in cereal crops, greenhouse (Example III)", "format": "in vivo, Cirsium arvense (L.) Scop.", "summary_of_the_method": "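Greenhouse plants at the second or third true leaf stage (14 hour photoperiod, about 18/17 °C) were track-sprayed at 187 L/ha with Compound A SC, a second cereal herbicide, or their combinations, using 1.25% v/v crop oil concentrate. Injury was scored visually at 20-22 days against solvent-blank controls on a 0–100% scale. Expected mixture effects were calculated with Colby's equation.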"}, "[3]": {"system": "CYPIR (Cyperus iria, rice flatsedge)", "assay": "Postemergence foliar-applied weed control, direct seeded rice, greenhouse (Example I)", "format": "in vivo, Cyperus iria L.", "summary_of_the_method": "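Greenhouse-grown plants (14 h photoperiod, 29/26 °C day/night) at first to fourth true leaf stage sprayed overhead at 187 L/ha with Compound A (acid equivalent basis) alone or mixed with sulfonylurea ALS inhibitors (active ingredient basis). Final spray contained 1.25% v/v crop oil concentrate; controls received solvent blank.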"}, "[4]": {"system": "ISCRU (Ischaemum rugosum, saramollagrass)", "assay": "Postemergence foliar-applied weed control, direct seeded rice, greenhouse (Example I)", "format": "in vivo, Ischaemum rugosum Salisb.", "text": "Seeds or nutlets of the desired test plant species were planted in a soil matrix prepared by mixing a loam or sandy loam soil (e.g., 28.6 percent silt, 18.8 percent clay, and 52.6 percent sand, with a pH of about 5.8 and an organic matter content of about 1.8 percent) and calcareous grit in an 80 to 20 ratio. The soil matrix was contained in plastic pots with a volume of 1 quart and a surface area of 83.6 square centimeters (cm^2). When required to ensure good germination and healthy plants, a fungicide treatment and/or other chemical or physical treatment was applied. The plants were grown for 8-22 days in a greenhouse with an approximate 14 h photoperiod which was maintained at about 29° C. during the day and 26° C. during the night. Nutrients (Peters Excel® 15-5-15 5-Ca 2-Mg and iron chelate) were applied in the irrigation solution as needed and water was added on a regular basis. Supplemental lighting was provided with overhead metal halide 1000-Watt lamps as necessary. The plants were employed for testing when they reached the first through fourth true leaf stage.\nTreatments consisted of the acid or esters of 4-amino-3-chloro-5-fluoro-6-(4-chloro-2-fluoro-3-methoxy-phenyl)pyridine-2-carboxylic acid (Compound A), each formulated as an SC, and various herbicidal components alone and in combination. Forms of compound A were applied on an acid equivalent basis.\nOther herbicidal components were applied on an active ingredient basis and included acetolactate synthase (ALS)-inhibiting herbicides (sulfonylurea chemical class) azimsulfuron formulated as Gulliver®, bensulfuron-methyl formulated as Londax® 60DF, cyclosulfamuron (technical material), ethoxysulfuron formulated as Sunrice® 15 WDG, flazasulfuron formulated as Katana®, flucetosulfuron formulated as Sukedachi® 1KG G, foramsulfuron formulated as Option®, imazosulfuron formulated as Brazzos® WG, iodosulfuron-methyl-sodium formulated as Hussar®, metsulfuron-methyl formulated as Lorate®, nicosulfuron formulated as Accent®, orthosulfamuron formulated as Strada® WG, primisulfuron-methyl (technical material), propyrisulfuron formulated as Zeta One®, rimsulfuron formulated as Matrix® WG, sulfometuron-methyl formulated as Oust®, and trifloxysulfuron-sodium formulated as Monument® 75WG.\nTreatment requirements were calculated based upon the rates being tested, the concentration of active ingredient or acid equivalent in the formulation, and a 12 mL application volume at a rate of 187 L/ha.\nFor treatments comprised of formulated compounds, measured amounts of compounds were placed individually in 25 mL glass vials and diluted in a volume of 1.25% (v/v) Agri-Dex® crop oil concentrated to obtain 12× stock solutions. […] Application solutions were prepared by adding an appropriate amount of each stock solution (e.g., 1 mL) and diluted to the appropriate final concentrations with the addition of 10 mL of an aqueous mixture of 1.25% (v/v) crop oil concentrate so that the final spray solutions contained 1.25+/−0.05% (v/v) Agrcrop oil concentrate.\nFor treatments comprised of formulated and technical compounds, weighed amounts of the technical materials were placed individually in 25 mL glass vials and dissolved in a volume of 97:3 v/v acetone/DMSO to obtain 12× stock solutions, and measured amounts of the formulated compounds were placed individually in 25 mL glass vials and diluted in a volume of 1.25% (v/v) crop oil concentrate to obtain 12× stock solutions. […] Application solutions were prepared by adding an appropriate amount of each stock solution (e.g., 1 mL) and diluted to the appropriate final concentrations with the addition of an appropriate amount of an aqueous mixture of 1.5% (v/v) crop oil concentrate so that the final spray solutions contained 1.25% (v/v) crop oil concentrate. […]"}}, "note": "“And” between values parts separate entries of the source, which are not always exact repeats. Identical values can stand only once.", "data": [{"compound": "COC(=O)c1ccccc1S(=O)(=O)NC(=O)Nc1nc(C)nc(OC)n1", "note": "[Metsulfuron-methyl, methyl 2-[[[[(4-methoxy-6-methyl-1,3,5-triazin-2-yl)amino]carbonyl]amino]sulfonyl]benzoate, reference compound]", "values": [{"measurement": "Weed Control MATCH Obs", "setting": "[1]; Table 56, after 20-22 days, 1.1 gai/ha alone", "value": 89, "unit": "%"}, {"measurement": "pest or weed control at 1.1 g/ha", "setting": "[2]; Cirsium arvense, post-emergence, Table 56, foliar-applied, after 20-22 days, 1.1 gai/ha alone, read-out: Weed Control CIRAR Obs", "value": 65, "unit": "%"}]}, {"compound": "COc1c(Cl)ccc(-c2nc(C(=O)O)c(Cl)c(N)c2F)c1F", "note": "[Compound A Acid, 4-amino-3-chloro-5-fluoro-6-(4-chloro-2-fluoro-3-methoxy-phenyl)pyridine-2-carboxylic acid]", "values": [{"measurement": "Visual Weed Control (%) Obs", "setting": "[3]; 21 DAA, 4.38 gae/ha", "value": 70, "unit": "%"}, {"measurement": "Visual Weed Control (%) Obs", "setting": "[3]; 22 DAA, 8 gae/ha", "value": 60, "unit": "%"}, {"measurement": "Visual Weed Control (%) Obs", "setting": "[3]; 22 DAA, 16 gae/ha", "value": 90, "unit": "%"}]}, {"compound": "COc1c(Cl)ccc(-c2nc(C(=O)OCc3ccccc3)c(Cl)c(N)c2F)c1F", "note": "[Compound A Benzyl Ester]", "values": [{"measurement": "Visual Weed Control (%) Obs", "setting": "[3]; 20 DAA, 4.38 gae/ha", "value": 15, "unit": "%"}, {"measurement": "Visual Weed Control (%) Obs", "setting": "[3]; 20 DAA, 8.75 gae/ha", "value": 60, "unit": "%"}, {"measurement": "Visual Weed Control (%) Obs", "setting": "[3]; 20 DAA, 17.5 gae/ha", "value": 90, "unit": "%"}, {"measurement": "Visual Weed Control (%) Obs", "setting": "[3]; 21 DAA, 4.38 gae/ha", "value": 50, "unit": "%"}, {"measurement": "Visual Weed Control (%) Obs", "setting": "[3]; 22 DAA, 16 gae/ha", "value": "60% and 80%"}, {"measurement": "Visual Weed Control (%) Obs", "setting": "[4]; 20 DAA, 6 gae/ha", "value": 30, "unit": "%"}, {"measurement": "Visual Weed Control (%) Obs", "setting": "[4]; 20 DAA, 24 gae/ha", "value": 35, "unit": "%"}, {"measurement": "Visual Weed Control (%) Obs", "setting": "[4]; 21 DAA, 8 gae/ha", "value": 20, "unit": "%"}, {"measurement": "Visual Weed Control (%) Obs", "setting": "[4]; 21 DAA, 16 gae/ha", "value": 0, "unit": "%"}, {"measurement": "Weed Control MATCH Obs", "setting": "[1]; Table 54, after 20-22 days, 8.75 gai/ha alone", "value": 20, "unit": "%"}, {"measurement": "Weed Control MATCH Obs", "setting": "[1]; Table 55, after 20-22 days, 8.75 gai/ha alone", "value": 20, "unit": "%"}, {"measurement": "Weed Control MATCH Obs", "setting": "[1]; Table 56, after 20-22 days, 8.75 gai/ha alone", "value": 20, "unit": "%"}, {"measurement": "Weed Control MATCH Obs", "setting": "[1]; Table 57, after 20-22 days, 8.75 gai/ha Compound A Benzyl Ester alone", "value": 20, "unit": "%"}, {"measurement": "Weed Control MATCH Obs", "setting": "[1]; Table 59 (cereal), after 20-22 days, 8.75 gai/ha alone", "value": 20, "unit": "%"}, {"measurement": "pest or weed control at 8.75 g/ha", "setting": "[2]; Cirsium arvense, post-emergence, read-out: Weed Control CIRAR Obs", "value": 40, "unit": "%"}, {"measurement": "Weed Control CIRAR Obs", "setting": "[2]; Table 53, foliar-applied, after 20-22 days, 8.75 gai/ha alone", "value": 40, "unit": "%"}, {"measurement": "Weed Control CIRAR Obs", "setting": "[2]; Table 54, foliar-applied, after 20-22 days, 8.75 gai/ha alone", "value": 40, "unit": "%"}, {"measurement": "Weed Control CIRAR Obs", "setting": "[2]; Table 55, foliar-applied, after 20-22 days, 8.75 gai/ha alone", "value": 40, "unit": "%"}, {"measurement": "Weed Control CIRAR Obs", "setting": "[2]; Table 56, foliar-applied, after 20-22 days, 8.75 gai/ha alone", "value": 40, "unit": "%"}, {"measurement": "Weed Control CIRAR Obs", "setting": "[2]; Table 57, foliar-applied, after 20-22 days, 8.75 gai/ha Compound A Benzyl Ester alone", "value": 40, "unit": "%"}, {"measurement": "Weed Control CIRAR Obs", "setting": "[2]; Table 58 (cereal), foliar-applied, after 20-22 days, 8.75 gai/ha alone", "value": 40, "unit": "%"}, {"measurement": "Weed Control CIRAR Obs", "setting": "[2]; Table 59 (cereal), foliar-applied, after 20-22 days, 8.75 gai/ha alone", "value": 40, "unit": "%"}]}, {"compound": "COC(=O)c1ccccc1CS(=O)(=O)NC(=O)Nc1nc(OC)cc(OC)n1", "note": "[Bensulfuron-methyl, methyl 2-[[[[[(4,6-dimethoxy-2-pyrimidinyl)amino]carbonyl]amino]sulfonyl]methyl]benzoate, reference compound]", "values": [{"measurement": "Visual Weed Control (%) Obs", "setting": "[4]; 20 DAA, 70 gai/ha", "value": 30, "unit": "%"}]}, {"compound": "COCC(=O)OC(c1ncccc1S(=O)(=O)NC(=O)Nc1nc(OC)cc(OC)n1)C(C)F", "note": "(stereo not shown) [Flucetosulfuron, 1-[3-[[[[(4,6-dimethoxy-2-pyrimidinyl)amino]carbonyl]amino]sulfonyl]-2-pyridinyl]-2-fluoropropyl 2-methoxyacetate]", "values": [{"measurement": "Visual Weed Control (%) Obs", "setting": "[3]; 21 DAA, 0.05 gai/ha", "value": 0, "unit": "%"}, {"measurement": "Visual Weed Control (%) Obs", "setting": "[3]; 21 DAA, 0.1 gai/ha", "value": 0, "unit": "%"}, {"measurement": "Visual Weed Control (%) Obs", "setting": "[3]; 21 DAA, 0.2 gai/ha", "value": 20, "unit": "%"}]}]}
